# Measurements: patent publication EP0571593B1, “NEW NON IONIC IODIZED AGENTS FOR X-RAY CONTRASTING, METHOD FOR PREPARING THEM AND GALENICAL COMPOSITIONS CONTAINING THEM” (CENTRO INVESTIGACION JUSTESA IMAGEN S.A., priority 1991, dated 1993)
# Experiment: Iodine content
# Type: physicochemical
row,Compound,% Iodine
1,"O=C(CN(CCO)C(=O)c1c(I)c(NC(=O)CO)c(I)c(C(=O)NCC(O)CO)c1I)Nc1c(I)c(C(=O)NCCO)c(I)c(C(=O)NCCO)c1I (stereo not drawn) [EXAMPLE 14, N,N'-bis-(2-hydroxyethyl)-5-{3-[N-(2,3-dihydroxypropyl)-carbamoyl]-5-hydroxyacetamido-2,4,6-triiodobenzoyl-N-(2, hydroxyethyl)aminoacetamido}-2,4,6-triiodoisophthalamide]","53,7%"
2,"COCC(=O)Nc1c(I)c(C(=O)NCC(O)CO)c(I)c(C(=O)N(CCO)CC(=O)Nc2c(I)c(C(=O)NCCO)c(I)c(C(=O)NCCO)c2I)c1I (stereo not drawn) [EXAMPLE 17, N,N'-bis-(2-hydroxyethyl)-5-{3-[N-(2,3-dihydroxypropyl)carbamoyl]-5-methoxyacetamido-2,4,6-triodobenzoyl-N-(2-hydroxyethyl)aminoacetamido}-2,4,6-triiodoisophthalamide]","53,2%"
3,O=C(CO)Nc1c(I)c(C(=O)NCC(=O)Nc2c(I)c(C(=O)NCC(O)CO)c(I)c(C(=O)NCC(O)CO)c2I)c(I)c(C(=O)NCC(O)CO)c1I (stereo not drawn) [EXAMPLE 18],"53,1%"
4,"O=C(CO)Nc1c(I)c(C(=O)NCC(=O)Nc2c(I)c(C(=O)NC(CO)C(O)CO)c(I)c(C(=O)NC(CO)C(O)CO)c2I)c(I)c(C(=O)NCC(O)CO)c1I (stereo not drawn) [EXAMPLE 19, N,N'-bis-(1-hydroxymethyl-2,3-dihydroxypropyl)-5-{3-[N-(2,3-dihydroxypropyl)carbamoyl]-5-hydroxyacetamido-2,4,6-triiodobenzoylaminoacetamido}-2,4,6-triiodoisophthalamide]",51%
5,"COCC(=O)Nc1c(I)c(C(=O)NCC(=O)Nc2c(I)c(C(=O)NC(CO)C(O)CO)c(I)c(C(=O)NC(CO)C(O)CO)c2I)c(I)c(C(=O)NCC(O)CO)c1I (stereo not drawn) [EXAMPLE 20, N,N'-bis-(1-hydroxymethyl-2,3-dihydroxypropyl)-5-{3-[N-(2,3-dihydroxypropyl)carbamoyl]-5-methoxyacetamido-2,4,6-triiodobenzoylaminoacetamido}-2,4,6-triiodoisolphthalamide]","50,5%"
6,"COCC(=O)Nc1c(I)c(C(=O)NCC(O)CO)c(I)c(C(=O)N(C)CC(=O)Nc2c(I)c(C(=O)NC(CO)C(O)CO)c(I)c(C(=O)NC(CO)C(O)CO)c2I)c1I (stereo not drawn) [EXAMPLE 21, N,N'-bis-(1-hydroxymethyl-2,3-dihydroxypropyl)-5-{3-[N-(2,3-dihydroxypropyl)carbomoyl]-5-methoxyacetamido-2,4,6-triiodo-benzoyl-N-methylaminoacetamido}-2,4,6-triiodoisophthalamide]",50%
7,"COCC(=O)Nc1c(I)c(C(=O)NCC(=O)N(C)c2c(I)c(C(=O)N(C)CC(O)CO)c(I)c(C(=O)N(C)CC(O)CO)c2I)c(I)c(C(=O)NCC(O)CO)c1I (stereo not drawn) [EXAMPLE 27, N,N'-bis-(2,3-dihydroxypropyl)-N,N'-dimethyl-5-{3-[N-(2,3-dihydroxypropyl)carbamoyl]-5-methoxyacetamido-2,4,6-triiodobenzoylaminoacetyl-N-methylamino}-2,4,6-triiodo isophthalamide]","51,1%"
8,"COCC(=O)Nc1c(I)c(C(=O)NCC(=O)N(C)c2c(I)c(C(=O)NCC(O)CO)c(I)c(C(=O)NCC(O)CO)c2I)c(I)c(C(=O)NCC(O)CO)c1I (stereo not drawn) [EXAMPLE 28, N,N'-bis-(2,3-dihydroxypropyl)-5-{3-[N-(2,3-dihydroxypropyl)carbamoyl]-5-methoxyacetamido-2,4,6-triiodobenzoylaminoacetyl-N-methylamino}-2,4,6-triiodoisophthalamide]","51,6%"
9,"CN(CC(=O)N(C)c1c(I)c(C(=O)N(CCO)CCO)c(I)c(C(=O)N(CCO)CCO)c1I)C(=O)c1c(I)c(NC(=O)CO)c(I)c(C(=O)NCC(O)CO)c1I (stereo not drawn) [EXAMPLE 29, N,N,N',N'-tetrakis-(2-hydroxyethyl)-5-{3-[N-(2,3-dihydroxypropyl)carbamoyl]-5-hydroxyacetamido-2,4,6-triiodobenzoyl-N-methylaminoacetyl-N-methylamino}-2,4,6-triiodoisophthalamide]","51,1%"
